Experimental data as given in publication PMC9081329, “Pharmacokinetics, Mass Balance, Excretion, and Tissue Distribution of Plasmalogen Precursor PPI-1011” (Frontiers in Cell and Developmental Biology, 2022).

Test: Repeat dose tissue distribution study (QWBA, LSC of blood and plasma), 15 daily doses
Type: in vivo, Sprague-Dawley rats
Procedure: Three male rats were administered [^14C]PPI-1011 at 100 mg/kg (100 μCi/kg) once daily for 15 days. One rat was sacrificed at each of the following time points after the administration of the day 15 dose: 24, 48, and 96 h. Terminal blood was collected by cardiac puncture directly into tubes with K2EDTA, an aliquot was stored at 4°C until LSC was performed for radioactivity, while the remaining blood was processed to plasma and stored at −20°C until LSC. Following blood collection, the carcasses were frozen in a cold bath with hexanes and dry ice for at least 8 min and then dried and stored at −70°C for at least 12 h. The carcasses were transferred to a −20°C freezer for at least 12 h before embedding.
QWBA was used to determine radioactivity concentrations in the caecum (contents and mucosa), large intestine (contents and mucosa), small intestine (contents and mucosa), stomach (contents and mucosa), brain, choroid plexus, spinal cord, bone, skin, adrenal gland, pineal body, pituitary gland, thyroid gland, liver, kidney (cortex, medulla and whole kidney), urinary bladder (contents and wall), brown fat, white fat, eye (lens, uveal tract and whole eye), epididymis, prostate gland, testis, ovary, uterus, lung, exorbital lachrymal gland, Harderian gland, pancreas, salivary gland, skeletal muscle, myocardium, cardiac blood, bone marrow, lymph node, spleen, and thymus. As well, LSC was used to determine the total radioactivity in the whole blood and plasma.
The whole-body cryosectioning technique described by ([Ullberg, 1977]) was the basis for embedding and cryosectioning the rats assigned to this study. Each frozen carcass was shaved, and then the limbs and tail were removed prior to embedding. Chilled (4°C) 3% CMC (low viscosity) was utilized to provide a firm support of reinforced ice around each rat and for a secure attachment to the microtome stage. Upon thorough freezing of the embedding medium surrounding each rat, the frozen CMC block was removed from the freezing bath and four 3/8 inch holes were drilled into the block. One cryosection quality control standard (CQCS) was prepared with a known amount of radioactivity and at least 1 ml aliquots were added to each of the four drilled holes. CQCS data were utilized to evaluate the overall performance of the QWBA assay.
Each frozen rat was sagittally trimmed (50–100 μm) at −20°C until exposure of a few target tissues employing a Leica Cryomacrocut heavy-duty microtome (Leica Microsystems Inc.,). Disposable stainless steel Feather type H45L knives (Feather Safety Razor Co., Ltd.) were utilized for trimming and sectioning each frozen rat. Several thinner sections (50 μm) were discarded prior to obtaining multiple 50 μm sections at various cryosectioning levels for QWBA analysis. Upon the collection of at least 60 target tissues in multiple cryosectioning levels, the cryosections were kept in the Cryomacrocut cryochamber for a minimum of 18 h for dehydration depending upon the number of cryosections within the cryochamber. After dehydration was complete, the cryosections were transferred to ambient temperature for processing. Mounted whole-body cryosections and a set of 15 standards were sandwiched between a standard phosphor screen and an exposure cassette. All cryosections were exposed to the phosphor screen for 4-days in a cabinet protected with lead prior to scanning using a Typhoon PhosphorImager (Cytiva). MCID™ Analysis software (InterFocus Ltd.) was utilized to generate a calibration curve of the STD nominal concentrations (nCi/g) versus PhosphorImager response (counts/μm^2 minus background) by weighted (1/x) linear regression analysis ([Potchoiba et al., 1995]; [Potchoiba et al., 1998]). The linear regression curve was then utilized to determine the concentration (nCi/g) of total radioactivity in whole-body tissues and blood. Radioactivity concentrations were expressed as μg Eq/g based on the specific activity of the compound in the final dose formulations. […]

[1] = 24 hr post 15 daily oral 100 mg/kg
[2] = 48 hr post 15 daily oral 100 mg/kg

In the case of `CC/C=C\C/C=C\C/C=C\C/C=C\C/C=C\C/C=C\CCC(=O)O[C@H](CO[14CH2]CCCCCCCCCCCCCCC)COC(=O)CCCCC1CCSS1` (stereo partly shown) [[^14C]PPI-1011], the “Mean percentage radioactivity (normalized by tissue) at 96 h relative to the 24-h timepoint” value (15 daily doses) is reported as 75%, the “Radioactivity in urine within the urinary bladder” value (15 daily doses) is reported as “no detection of radioactivity” and the “Time of highest blood concentration” value (15 daily doses) is reported as 24 HPD. The “Time of highest levels, adrenal gland” value (15 daily doses) was 48 HPD, the “Time of highest levels, cerebrum” value (15 daily doses) was 96 HPD and the “Time of highest levels, medulla oblongata” value (15 daily doses) was 96 HPD. For the same compound, the “Time of highest levels, nasal turbinates” value (15 daily doses) was 48 HPD, the “Time of highest levels, spinal cord” value (15 daily doses) was 96 HPD and the “Time of highest peak concentration, bladder wall” value (15 daily doses) was 48 HPD. For the same compound, the “Time of highest peak concentration, brown adipose” value (15 daily doses) was 24 HPD, the “Time of highest peak concentration, cecum” value (15 daily doses) was 24 HPD and the “Time of highest peak concentration, esophagus” value (15 daily doses) was 24 HPD. The “Time of highest peak concentration, gastric mucosa” value (15 daily doses) was 24 HPD, the “Time of highest peak concentration, large intestines” value (15 daily doses) was 24 HPD and the “Time of highest peak concentration, ocular lens” value (15 daily doses) was 96 HPD. For the same compound, the “Time of highest peak concentration, prostate” value (15 daily doses) was 96 HPD, the “Time of highest peak concentration, seminal vesicles” value (15 daily doses) was 24 HPD and the “Time of highest peak concentration, small intestines” value (15 daily doses) was 24 HPD. The “Time of highest peak concentration, stomach” value (15 daily doses) was 24 HPD, the “Time of highest peak concentration, subcutaneous adipose” value (15 daily doses) was 48 HPD and the “Time of highest peak concentration, testis” value (15 daily doses) was 24 HPD. The “Time of highest peak concentration, uveal tract” value (15 daily doses) was 24 HPD, the “Time of highest peak concentration, visceral adipose” value (15 daily doses) was 48 HPD and the “Time of highest peak concentration, vitreous body” value (15 daily doses) was 24 HPD. For the same compound, the “Time of highest peak concentration, whole eye” value (15 daily doses) was 24 HPD, the “Blood:plasma concentration ratio” value (24 HPD, 15 daily doses) was 2.31 and the “Blood:plasma concentration ratio” value (48 HPD, 15 daily doses) was 2.86. The “Blood:plasma concentration ratio” value (96 HPD, 15 daily doses) was 4.23, the “Radioactivity concentration, Adipose - Brown” value [1] was 2211 μg equivalents/g and the “Radioactivity concentration, Adipose - Brown (Vessel Wall)” value [1] was 1423 μg equivalents/g. The “Radioactivity concentration, Adipose - Subcutaneous” value [1] was 1316 μg equivalents/g, the “Radioactivity concentration, Adipose - Visceral” value [1] was 1402 μg equivalents/g and the “Radioactivity concentration, Adrenal Gland” value [1] was 1830 μg equivalents/g. For the same compound, the “Radioactivity concentration, Bladder Wall” value [1] was 102 μg equivalents/g, the “Radioactivity concentration, Blood - QWBA” value [1] was 55.0 μg equivalents/g and the “Radioactivity concentration, Bone Marrow” value [1] was 160 μg equivalents/g. For the same compound, the “Radioactivity concentration, Bone Surface” value [1] was 11.6 μg equivalents/g, the “Radioactivity concentration, Cecum” value [1] was 300 μg equivalents/g and the “Radioactivity concentration, Cerebellum” value [1] was 57.8 μg equivalents/g. The “Radioactivity concentration, Cerebrum” value [1] was 45.7 μg equivalents/g, the “Radioactivity concentration, Choroid Plexus” value [1] was 186 μg equivalents/g and the “Radioactivity concentration, Colliculus” value [1] was 68.3 μg equivalents/g. The “Radioactivity concentration, Diaphragm” value [1] was 204 μg equivalents/g, the “Radioactivity concentration, Esophagus” value [1] was 161 μg equivalents/g and the “Radioactivity concentration, Exorbital Lacrimal Gland” value [1] was 98.0 μg equivalents/g. The “Radioactivity concentration, Gastric Mucosa” value [1] was 415 μg equivalents/g, the “Radioactivity concentration, Harderian Gland” value [1] was 113 μg equivalents/g and the “Radioactivity concentration, Intra-Orbital Lacrimal Gland” value [1] was 100 μg equivalents/g. For the same compound, the “Radioactivity concentration, Kidney” value [1] was 304 μg equivalents/g, the “Radioactivity concentration, Large Intestines” value [1] was 255 μg equivalents/g and the “Radioactivity concentration, Liver” value [1] was 412 μg equivalents/g. For the same compound, the “Radioactivity concentration, Lung” value [1] was 217 μg equivalents/g, the “Radioactivity concentration, Lymph Node” value [1] was 347 μg equivalents/g and the “Radioactivity concentration, Medulla Oblongata” value [1] was 51.0 μg equivalents/g. The “Radioactivity concentration, Muscle” value [1] was 115 μg equivalents/g, the “Radioactivity concentration, Myocardium” value [1] was 292 μg equivalents/g and the “Radioactivity concentration, Nasal Turbinates” value [1] was 180 μg equivalents/g. The “Radioactivity concentration, Ocular - Lens” value [1] was 5.82 μg equivalents/g, the “Radioactivity concentration, Ocular - Uveal Tract” value [1] was 105 μg equivalents/g and the “Radioactivity concentration, Ocular - Vitreous Body” value [1] was 2.55 μg equivalents/g. For the same compound, the “Radioactivity concentration, Ocular - Whole Eye” value [1] was 22.7 μg equivalents/g, the “Radioactivity concentration, Olfactory Bulb” value [1] was 47.8 μg equivalents/g and the “Radioactivity concentration, Pancreas” value [1] was 355 μg equivalents/g. The “Radioactivity concentration, Parotid Gland” value [1] was 296 μg equivalents/g, the “Radioactivity concentration, Pineal Gland” value [1] was 230 μg equivalents/g and the “Radioactivity concentration, Pituitary Gland” value [1] was 266 μg equivalents/g. For the same compound, the “Radioactivity concentration, Prostate” value [1] was 74.6 μg equivalents/g, the “Radioactivity concentration, Renal Cortex” value [1] was 323 μg equivalents/g and the “Radioactivity concentration, Renal Medulla” value [1] was 238 μg equivalents/g. The “Radioactivity concentration, Salivary Gland” value [1] was 308 μg equivalents/g, the “Radioactivity concentration, Seminal Vesicles” value [1] was 63.2 μg equivalents/g and the “Radioactivity concentration, Skin - Non-Pigmented” value [1] was 161 μg equivalents/g. The “Radioactivity concentration, Small Intestines” value [1] was 420 μg equivalents/g, the “Radioactivity concentration, Spinal Cord” value [1] was 46.8 μg equivalents/g and the “Radioactivity concentration, Spleen” value [1] was 319 μg equivalents/g. The “Radioactivity concentration, Stomach” value [1] was 133 μg equivalents/g, the “Radioactivity concentration, Testis” value [1] was 70.3 μg equivalents/g and the “Radioactivity concentration, Thalamus” value [1] was 45.4 μg equivalents/g. The “Radioactivity concentration, Thymus” value [1] was 153 μg equivalents/g, the “Radioactivity concentration, Thyroid” value [1] was 373 μg equivalents/g and the “Radioactivity concentration, Whole Brain” value [1] was 48.8 μg equivalents/g. The “Radioactivity concentration, Adipose - Brown” value [2] was 1917 μg equivalents/g, the “Radioactivity concentration, Adipose - Brown (Vessel Wall)” value [2] was 1017 μg equivalents/g and the “Radioactivity concentration, Adipose - Subcutaneous” value [2] was 1498 μg equivalents/g. For the same compound, the “Radioactivity concentration, Adipose - Visceral” value [2] was 1500 μg equivalents/g, the “Radioactivity concentration, Adrenal Gland” value [2] was 2346 μg equivalents/g and the “Radioactivity concentration, Bladder Wall” value [2] was 108 μg equivalents/g. For the same compound, the “Radioactivity concentration, Blood - QWBA” value [2] was 34.3 μg equivalents/g, the “Radioactivity concentration, Bone Marrow” value [2] was 113 μg equivalents/g and the “Radioactivity concentration, Bone Surface” value [2] was 7.66 μg equivalents/g. For the same compound, the “Radioactivity concentration, Cecum” value [2] was 95.7 μg equivalents/g, the “Radioactivity concentration, Cerebellum” value [2] was 54.9 μg equivalents/g and the “Radioactivity concentration, Cerebrum” value [2] was 39.9 μg equivalents/g. For the same compound, the “Radioactivity concentration, Choroid Plexus” value [2] was 131 μg equivalents/g.
